Results from PubChem BioAssay AID463098 (The Scripps Research Institute Molecular Screening Center, 2010).
Activity calls are given as the source filed them.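 The calls were made as follows: active = compounds that block at least 90% of GSTO1 probe labeling in cell lysate; inactive = the rest.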

Target: Glutathione S-transferase omega-1 (Homo sapiens) (UniProt P78417)
Assay: endogenous GSTO1 inhibitors in proteome, late-stage follow-up, cell lysate, MDA-MB-435 proteome, gel ABPP, SE-Rh, percent inhibition (AID 463098)
Details: gel ABPP SE-Rh fluorescence, at 1 µM, active compounds read high

Chain of Glutathione S-transferase omega-1 (Homo sapiens) (P78417 whole entry, looked up): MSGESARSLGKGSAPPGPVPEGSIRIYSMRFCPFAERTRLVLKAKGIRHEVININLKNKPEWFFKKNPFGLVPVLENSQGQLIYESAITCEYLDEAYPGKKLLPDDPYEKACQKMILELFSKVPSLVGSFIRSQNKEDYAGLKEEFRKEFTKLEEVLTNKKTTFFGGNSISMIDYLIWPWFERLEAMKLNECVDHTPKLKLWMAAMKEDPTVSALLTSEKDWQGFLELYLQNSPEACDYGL

Structure (SMILES) | inhibition
O=C(CCl)N(Cc1cc(=O)[nH]c2ccccc12)c1ccccc1 | 38% (inactive)
N#CCCN(C(=O)CCl)c1cccc(Cl)c1 | 69% (inactive)
CC(C)CCn1c(=O)c2ccccc2n2c(CCl)nnc12 | 87% (inactive)
C=CCOc1ccccc1CN(C(=O)CCl)c1ccc2c(c1)OCO2 | 35% (inactive)
Cc1ccc(N(C(=O)CCl)C(C(=O)NC2CCCCC2)c2cccnc2)cc1C (configuration not stated) | 76% (inactive)
O=C(CCl)N(CCc1ccccc1)CCc1ccccc1 | 57% (inactive)
O=S(=O)(c1ccc(Cl)cc1)N1CCC2(CC1)CO2 | 94%
CCC(C)N(CC(=O)Nc1cccc(C)c1C)C(=O)CCl (configuration not stated) | 26% (inactive)
O=Cc1[nH]c2ccccc2c1N(C(=O)CCl)c1ccc([N+](=O)[O-])cc1 | 75% (inactive)
O=c1cc(CCl)nc2scc(-c3ccccc3)n12 | 22% (inactive)
Cc1nn(-c2ccc(Cl)cc2)c2[nH]c(CCl)cc(=O)c12 | 26% (inactive)
COC(CN(C(=O)CCl)C(C(=O)NC1CCCCC1)c1ccccc1C)OC (configuration not stated) | 0% (inactive)
CN(C)C(=O)CN1CCN(C(=O)CCl)CC1 | 3% (inactive)
COc1ccc(C(CCN(Cc2ccc(OC)c(OC)c2)C(=O)CCl)c2ccccc2)cc1 (configuration not stated) | 100%
O=c1[nH]c(CCl)nc2cc(-c3ccc(F)cc3)sc12 | 100%
O=C(CCl)N(c1ccc(Cl)cc1)c1c[nH]c2ccccc12 | 23% (inactive)
COc1ccc(C(C(=O)NC2CCCCC2)N(C(=O)CCl)c2cccc(Cl)c2)cc1 (configuration not stated) | 100%
COc1ccc(N(Cc2cc(=O)[nH]c3ccccc23)C(=O)CCl)cc1 | 38% (inactive)
COC(=O)CC1C(=O)NC2CCCCC2N1C(=O)CCl (configuration not stated) | 0% (inactive)
Cc1nn(-c2ccccc2)c(Cl)c1CN(C(=O)CCl)c1ccc(Cl)cc1 | 93%
CC(=O)n1cc(N(C(=O)CCl)c2ccccc2)c2ccccc21 | 0% (inactive)
O=C(NC1CCCCC1)C(c1cccnc1)N(C(=O)CCl)c1cccc(Cl)c1 (configuration not stated) | 100%
COCCN(C(=O)CCl)C(C(=O)NC1CCCCC1)c1ccccc1C (configuration not stated) | 25% (inactive)
CN(Cc1ccc(Cl)s1)C(=O)CCl | 83% (inactive)

Structure (SMILES) | inhibition
Cc1nn(-c2ccccc2)c(Cl)c1CN(C(=O)CCl)c1cccc2ccccc12 | 34% (inactive)
COc1ccc(N(C(=O)CCl)C(C(=O)NCCc2ccccc2)c2cccs2)cc1Cl (configuration not stated) | 100%
O=C(NC1CCCCC1)C(c1cccnc1)N(C(=O)CCl)c1ccc(F)cc1 (configuration not stated) | 100%
CCOC(=O)N1CCN(C(=O)CCl)CC1 | 22% (inactive)
COc1cccc(N(C(=O)CCl)C(C(=O)NCCc2ccccc2)c2cccs2)c1 (configuration not stated) | 75% (inactive)
CN(Cc1ccc(Cl)cc1)C(=O)CCl | 18% (inactive)
CCCCCCN(C(=O)CCl)c1ccccc1 | 43% (inactive)
O=c1cc(CCl)nc(Cc2c(Cl)cccc2Cl)[nH]1 | 59% (inactive)
CCCCCCCN(C(=O)CCl)c1cccc(C)c1 | 58% (inactive)
COc1ccc(C(C(=O)NC2CCCCC2)N(C(=O)CCl)c2ccc(Cl)cc2)cc1 (configuration not stated) | 100%
O=C(CCl)N1c2ccccc2SCC1c1ccccc1 (configuration not stated) | 65% (inactive)
CCCCCn1c(=O)c2ccccc2n2c(CCl)nnc12 | 73% (inactive)
COc1ccc(N(C(=O)CCl)C(C(=O)NCCc2ccccc2)c2cccs2)cc1 (configuration not stated) | 86% (inactive)
COC(=O)C1Cc2ccccc2CN1C(=O)CCl (configuration not stated) | 40% (inactive)
CC1CCc2c(sc3nc(C(C)(C)C)nc(N4CCN(C(=O)CCl)CC4)c23)C1 (configuration not stated) | 48% (inactive)
O=C(CCl)N(c1ccccc1)C1CCCCC1 | 24% (inactive)
O=C(CCl)N1c2ccccc2OCC1c1ccccc1 (configuration not stated) | 37% (inactive)
CCOc1ccc(CN(C)C(=O)CCl)cc1 | 47% (inactive)
O=C(CCl)N1CCN(S(=O)(=O)c2ccc3ccccc3c2)CC1 | 100%
CC(=O)n1cc(N(C(=O)CCl)c2ccc(C)cc2)c2ccccc21 | 70% (inactive)
CC(=O)n1cc(N(C(=O)CCl)c2ccc(Cl)cc2)c2ccccc21 | 38% (inactive)
Cc1cccc(N(Cc2cc(=O)[nH]c3ccccc23)C(=O)CCl)c1 | 82% (inactive)
O=C(NC1CCCC1)C(c1ccc(F)cc1)N(Cc1ccccc1Cl)C(=O)CCl (configuration not stated) | 61% (inactive)
Cc1ccc(N(Cc2cc(=O)[nH]c3ccccc23)C(=O)CCl)cc1 | 41% (inactive)

Structure (SMILES) | inhibition
O=C(CCl)N(Cc1ccccc1)c1ccccc1 | 56% (inactive)
COc1ccc(N(C(=O)CCl)C(C(=O)NC2CCCCC2)c2cccnc2)cc1 (configuration not stated) | 97%
COc1ccc(CN(CCC(c2ccccc2)c2ccc(OC(C)C)cc2)C(=O)CCl)cc1OC (configuration not stated) | 81% (inactive)
O=C(O)C1Cc2ccccc2CN1C(=O)CCl (configuration not stated) | 84% (inactive)
Cc1ccc2c(c1)c(=O)c1c3n2CCN(C(=O)CCl)C3CC1 (configuration not stated) | 57% (inactive)
COc1cccc(-c2nc(CCl)cs2)c1 | 50% (inactive)
Cc1ccc2c(c1)c1c3n2CCN(C(=O)CCl)C3CCC1 (configuration not stated) | 96%
CC(C)N(CC(=O)Nc1ccc(Cl)cc1C(F)(F)F)C(=O)CCl | 7% (inactive)
O=C(NCCc1ccccc1)C(c1cccs1)N(C(=O)CCl)c1ccc(Cl)cc1 (configuration not stated) | 88% (inactive)
CC1CCN(C(=O)CCl)CC1 | 53% (inactive)
COc1ccccc1NS(=O)(=O)c1ccc2nc(CCl)[nH]c2c1 | 88% (inactive)
CC1CCCN(C(=O)CCl)C1 (configuration not stated) | 34% (inactive)
CCC1(CC)Cc2ccccc2-c2nc(CCl)[nH]c(=O)c21 | 84% (inactive)
O=c1cc(CCl)nc2sc3ccccc3n12 | 83% (inactive)
CCOC(=O)c1sc(N(Cc2ccccc2)C(=O)CCl)nc1C | 82% (inactive)
COc1ccc(C(C(=O)NC2CCCCC2)N(C(=O)CCl)c2ccc(C)cc2)cc1 (configuration not stated) | 82% (inactive)
CCCN(C(=O)CCl)C1=CCCCC1 | 0% (inactive)
CCc1ccc(-c2nc(CCl)cs2)cc1 | 40% (inactive)
Cc1ccc(NC(=O)Cc2nc(CCl)cs2)cc1 | 55% (inactive)
COc1cc2c(cc1OC)C(c1ccccc1)N(C(=O)CCl)CC2 (configuration not stated) | 81% (inactive)
CCCCCCCN(C(=O)CCl)c1ccccc1C | 51% (inactive)
COc1cc2c(cc1OC)C(c1cc(Br)ccc1F)N(C(=O)CCl)CC2 (configuration not stated) | 80% (inactive)
O=C(CCl)N(C/C=C/c1ccccc1)c1ccc2c(c1)OCCO2 | 58% (inactive)
Cc1cccc(CN2CCN(C(=O)CCl)CC2)c1 | 90%
